Data on five compounds can be found in patent US6403554B2, “Polyunsaturated fatty acid derivatives and their use” (Ardenia Investments Ltd., priority 1998, dated 2002).

A value given as a limit tells only on which side of the number the result lay.

Assay [1] relates to human AFP (alpha-fetoprotein). The conditions noted are these: International Application PCT/EP99/04201; cited from earlier work.
The target in another assay is T1, human AFP (Homo sapiens, UniProt P02771).
T1 construct: from tissue; host or cells: human cord blood
The assay can be described thus: AFP binding: competitive substitution of [3H]arachidonic acid from the protein's binding site. On the procedure: To tubes containing […] AFP in 1 ml 0.1 M bicarbonate buffer and 0.7 pmol [^3H]arachidonic acid and increasing amounts (5-5000 pmol) of arachidonic acid or any one of the title compounds 1-4, 1a-4a, and 5-20 were added. The tubes were incubated for 2 hr at room temperature. To separate protein-bound and free fractions of [^3H] arachidonic acid, tubes were incubated at 4° C. for 15 min with dextran covered activated carbon (0.5% suspension). The carbon was sedimented by centrifugation at 3000×g, aliquotes were added to 10 ml scintillating mixture and the vials were measured in a beta-counter.
The binding parameters of arachidonic acid and the compounds (1-4, 1a-4a, 5-16) the number of binding sites per protein molecule were calculated according to Scatchard (Scatchard O., Ann.N.Y.Acad.Sci. 51., p 660-664, 1949), and Blondeau (Blondeau J.-P., et al., Steroids, V. 32, N 5, P. 563-575, 1978).

Another assay relates to endothelial cells. The conditions noted are these: cited from earlier work.
The next assay deals with rats. The conditions noted are these: injected into rats; cited from earlier work.
A further assay has as its target T2, AFP (Homo sapiens, UniProt P02771).
T2 construct: from tissue; host or cells: human cord blood
T2 sequence (P02771 19-609): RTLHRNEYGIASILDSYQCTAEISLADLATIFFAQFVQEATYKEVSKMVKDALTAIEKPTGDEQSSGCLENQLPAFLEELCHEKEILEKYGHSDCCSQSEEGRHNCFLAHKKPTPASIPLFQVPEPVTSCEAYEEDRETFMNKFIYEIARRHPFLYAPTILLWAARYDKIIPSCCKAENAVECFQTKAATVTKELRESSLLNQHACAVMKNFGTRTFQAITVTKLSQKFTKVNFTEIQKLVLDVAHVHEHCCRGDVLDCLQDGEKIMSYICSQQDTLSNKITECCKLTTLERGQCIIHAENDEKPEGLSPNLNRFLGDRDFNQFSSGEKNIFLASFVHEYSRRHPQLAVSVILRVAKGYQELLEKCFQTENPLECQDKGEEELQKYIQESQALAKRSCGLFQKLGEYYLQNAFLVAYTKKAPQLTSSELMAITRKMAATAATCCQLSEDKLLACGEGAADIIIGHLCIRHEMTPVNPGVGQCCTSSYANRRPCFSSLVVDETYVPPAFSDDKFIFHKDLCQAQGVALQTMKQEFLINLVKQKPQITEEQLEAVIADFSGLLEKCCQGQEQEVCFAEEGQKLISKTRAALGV
The conditions noted are these: International Application PCT/EP99/04201; cited from earlier work.

Consider `CCCCC/C=C\C/C=C\C/C=C\C/C=C\CCCC(=O)NCCOP(=O)(O)O` [Compound 5, N-(cis-5,8,11,14-eicosatetraenoyl)-O-phospho-2-aminoethanol], for which the “molecules of N-AAP in micelle linked to AFP” value in assay [1] was “up to 300 molecules”.

A word on the Kd: it is the free concentration of one partner at which half of the binding sites on the other are occupied at equilibrium, for simple one-to-one binding. Higher therefore signals weaker binding. For the compound `CCCCC/C=C\C/C=C\C/C=C\C/C=C\CCCC(=O)O` [arachidonic acid], the Kd on human AFP was 16.7 nM. At human AFP (three independent determinations, Scatchard), the “n (number of binding sites per protein molecule)” value is above 1.2.

In the case of `CCCCCCCC/C=C\CCCCCCCCCCCC(N)=O` [Erucamide, 13-docosenamide], in the assay on endothelial cells, the inflammatory effects entry was “does not promote proliferation of endothelial cells or induce inflammatory effects” and the “proliferation of endothelial cells” value was “does not promote proliferation of endothelial cells”.

With `CCCCCCCC/C=C\CCCCCCCC(N)=O` [cis-9,10-octadecenoamide], the physiological sleep entry with rats was “induced physiological sleep”.

With `CCCCC/C=C\C/C=C\C/C=C\C/C=C\CCCC(=O)NCCOP(=O)(O)O` [Compound 5, N-arachidonoyl-o-phospho-2-aminoethanol], the “Molecules of compound in the micelle reversibly linked to AFP” value on AFP is “up to 300 molecules”.
